Measurements published in PubChem BioAssay (NCI).
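Assay format: 96-well plates, 48-hour exposure. TGI marks complete inhibition of growth.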

Columns and labels:
Assay in all cases: growth of human tumour cells (NCI), 48 h
A498 renal = tested on: A498 renal
IGROV1 ovarian = tested on: IGROV1 ovarian
SW-620 colon = tested on: SW-620 colon
NCI-H23 lung = tested on: NCI-H23 lung
COLO 205 colon = tested on: COLO 205 colon
HS 578T breast = tested on: HS 578T breast
MDA-MB-435 = tested on: MDA-MB-435
ACHN renal = tested on: ACHN renal
786-0 renal = tested on: 786-0 renal
OVCAR-3 ovarian = tested on: OVCAR-3 ovarian
SK-OV-3 ovarian = tested on: SK-OV-3 ovarian
SNB-75 CNS = tested on: SNB-75 CNS
SK-MEL-2 melanoma = tested on: SK-MEL-2 melanoma
K-562 leukemia = tested on: K-562 leukemia
UACC-62 melanoma = tested on: UACC-62 melanoma

| Compound | TGI (A498 renal) [µM] | TGI (IGROV1 ovarian) [µM] | TGI (SW-620 colon) [µM] | TGI (NCI-H23 lung) [µM] | TGI (COLO 205 colon) [µM] | TGI (HS 578T breast) [µM] | TGI (MDA-MB-435) [µM] | TGI (ACHN renal) [µM] | TGI (786-0 renal) [µM] | TGI (OVCAR-3 ovarian) [µM] | TGI (SK-OV-3 ovarian) [µM] | TGI (SNB-75 CNS) [µM] | TGI (SK-MEL-2 melanoma) [µM] | TGI (K-562 leukemia) [µM] | TGI (UACC-62 melanoma) [µM] |
| --- | --- | --- | --- | --- | --- | --- | --- | --- | --- | --- | --- | --- | --- | --- | --- |
| COc1cc(-c2c3c(cc4c2OCO4)[C@@H](Nc2ccc(-c4ccc(-c5ccc(N[C@@H]6c7cc8c(cc7C(c7cc(OC)c(O)c(OC)c7)[C@H]7C(=O)OC[C@H]67)OCO8)cc5)cc4)cc2)[C@H]2COC(=O)[C@@H]2C3)cc(OC)c1O (stereo partly specified) | 21.4 | 2.68 | 10.8 | 20.7 | 3.34 | > 100 | 3.86 | 11.3 | 6.22 | 4.85 | 10.1 | – | – | – | – |
| COc1cc2c(cc1OC)C(=O)/C(=C/c1cc(C)cc(C)c1)C2 | 48 | > 42.4 | > 90.7 | > 68 | 0.346 | > 100 | – | > 100 | > 44.6 | 1.04 | > 32.9 | > 100 | 44.4 | > 38 | > 84 |
| CC(C)C1=CC(=O)[C@@](C)(C2[C@H](O)C[C@@]3(C)[C@@H]4CC=C5[C@@H](CC[C@@H](OC6OCC(O)C(O)C6OC6OC(C)C(O)C(O)C6O)C5(C)C)[C@]4(C)C(=O)C[C@]23C)O1 (stereo partly specified) | > 100 | > 100 | > 100 | > 100 | > 100 | > 100 | > 100 | > 100 | > 100 | > 100 | > 100 | > 100 | – | > 100 | > 100 |
| CC(=O)OC1[C@H](OC(C)=O)C2=C(C)[C@@H](OC(C)=O)C[C@@]2(C(C)(C)O)[C@@H](OC(C)=O)[C@H]2[C@@]1(C)[C@@H](OC(C)=O)CC(OC(C)=O)[C@]21CO1 (stereo partly specified) | – | – | > 100 | > 100 | > 100 | > 100 | > 100 | > 100 | > 100 | > 100 | > 100 | > 100 | > 100 | > 100 | > 100 |
| Cc1cc2nc3c(C#N)c4c(c(-c5ccc(Cl)cc5)n3c2cc1C)CCC4 | 79.4 | 36.2 | > 100 | 35.4 | 39.1 | 47.9 | 54.8 | 59.5 | 35 | 40.7 | 34.1 | – | 36 | 53.6 | 33.9 |
| CNc1ncnc2c1nc(NC1CCCC1)n2C1OC(CO)C(O)C1O (stereo unspecified) | > 100 | – | > 100 | > 100 | > 100 | – | > 100 | > 100 | > 100 | > 100 | > 100 | – | > 100 | – | > 100 |
| c1ccc2c(c1)cc1n2CCc2c-1[nH]c1ccccc21 | – | > 10 | > 10 | > 10 | > 10 | > 10 | > 10 | > 10 | > 10 | > 10 | > 10 | > 10 | > 10 | > 10 | > 10 |
| O=c1c(Cc2ccc(Cl)cc2)nnc2sc(-c3ccc(-c4ccc(Cl)cc4Cl)o3)nn12 | > 100 | > 100 | > 100 | > 100 | > 100 | > 100 | > 100 | > 100 | > 100 | > 100 | > 100 | – | > 100 | > 100 | > 100 |
| CCn1c(CCl)nc2c1C(=O)c1ccccc1C2=O | – | 3.86 | 2.75 | 3.12 | – | 6.24 | 3.12 | 13.2 | > 100 | 3.05 | 2.38 | 3.62 | – | > 100 | 3.14 |
| Br[C@@H]1[C@H]2c3nc4ccccc4nc3[C@@H]1C[C@H]2Br | > 100 | > 100 | > 100 | > 100 | > 100 | > 100 | > 100 | > 100 | > 100 | > 100 | > 100 | – | – | > 100 | > 100 |
| C/C(=C/CC[C@]1(CO)CC[C@]2(C)[C@H](CC[C@@H]3[C@@]4(C)CC[C@H](OC5OC(CO)C(O)C(O)C5OC5OC(CO)C(O)C(O)C5O)C(C)(C)[C@@H]4CC[C@]32C)[C@H]1O)CO (stereo partly specified) | > 100 | > 100 | > 100 | > 100 | > 100 | > 100 | > 100 | > 100 | > 100 | > 100 | > 100 | > 100 | – | > 100 | > 100 |
| CN(CCNC(=O)c1c[nH]c2c1Cc1ccccc1-2)CCNC(=O)c1c[nH]c2c1Cc1ccccc1-2 | – | > 100 | > 100 | > 100 | > 100 | > 100 | 41.3 | > 100 | 44.8 | 73.7 | – | – | 52.1 | > 100 | 40.9 |
| O=C1CN(c2cccc(Cl)c2)C(=O)CN1NCNN1CC(=O)N(c2cccc(Cl)c2)CC1=O | > 100 | > 100 | > 100 | > 100 | > 100 | > 100 | > 100 | > 100 | > 100 | > 100 | > 100 | > 100 | – | – | > 100 |
| CC1OC2OC3C(OCC(O)C3O)OC(=O)[C@]34CCC(C)(C)CC3C3=CCC5[C@@]6(C)C[C@H](O)[C@H](OC7OC(CO)C(O)C(O)C7OC7OCC(OC(=O)CC(C)(O)CC(=O)OC1C(O)C2O)C(O)C7O)[C@@](C)(CO)C6CC[C@@]5(C)[C@]3(C)CC4 (stereo partly specified) | – | 16.9 | 19 | 10.1 | 4.39 | 21.2 | 19.1 | 18.3 | 25.6 | 20.7 | 10.4 | 18.4 | 18.8 | – | 14.4 |
| C[C@@H]1CC(=O)C[C@@H]2CC[C@H]3[C@@H]4CC[C@H](OC(=O)c5cccc6cc7ccccc7nc56)[C@H]4CC[C@@H]3[C@H]21 | – | 19.2 | 44.2 | 30.4 | 53.8 | > 100 | 35.1 | 29.3 | 23.5 | 29.8 | 66.7 | 36.5 | 38 | 38 | 28.4 |
